Data reported in US20210122730A1, “GLUCOCORTICOID RECEPTOR MODULATORS” (ORIC Pharmaceuticals, Inc., priority 2017, published 2021).

Biological target: T1, GR (Homo sapiens, UniProt P04150)
T1 construct: expressed in transfected cells; host or cells: CHO-K1
T1 sequence (P04150 1-777): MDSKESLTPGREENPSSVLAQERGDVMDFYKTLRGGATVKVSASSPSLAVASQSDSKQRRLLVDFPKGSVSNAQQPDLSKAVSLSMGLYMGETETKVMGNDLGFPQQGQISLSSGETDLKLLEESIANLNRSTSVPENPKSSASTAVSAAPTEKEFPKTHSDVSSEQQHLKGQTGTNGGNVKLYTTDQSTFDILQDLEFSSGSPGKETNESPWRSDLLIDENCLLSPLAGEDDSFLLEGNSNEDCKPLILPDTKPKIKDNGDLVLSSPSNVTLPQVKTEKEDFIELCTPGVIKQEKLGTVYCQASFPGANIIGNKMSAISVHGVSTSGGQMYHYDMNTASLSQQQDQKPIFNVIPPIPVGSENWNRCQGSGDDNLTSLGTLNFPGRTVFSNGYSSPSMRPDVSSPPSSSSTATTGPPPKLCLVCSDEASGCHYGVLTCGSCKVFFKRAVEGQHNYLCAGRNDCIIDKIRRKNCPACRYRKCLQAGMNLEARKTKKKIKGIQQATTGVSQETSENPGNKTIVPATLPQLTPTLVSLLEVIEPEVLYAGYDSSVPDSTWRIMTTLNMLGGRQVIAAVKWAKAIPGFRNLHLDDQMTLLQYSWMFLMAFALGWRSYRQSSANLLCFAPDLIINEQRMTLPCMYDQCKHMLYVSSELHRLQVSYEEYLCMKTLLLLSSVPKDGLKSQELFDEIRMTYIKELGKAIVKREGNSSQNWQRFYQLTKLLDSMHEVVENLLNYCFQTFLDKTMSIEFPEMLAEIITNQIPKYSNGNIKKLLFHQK
Test: In Vitro GR Luciferase Reporter Assay (antagonist mode, CHO-K1-GR-MMTV-Luc reporter cells)
Format: cell-based
Settings: antagonist assay with 10 nM Dexamethasone, 18-24 hours
How it was run: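 Antagonist mode: compounds (8 serial 1:5 dilutions) added to GR-MMTV-luciferase CHO-K1 reporter cells co-exposed to 10 nM dexamethasone final, in phenol red-free DMEM plus 10% CSS. After roughly 18-24 h at 37° C, OneGlo luminescence read and IC50 calculated.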

Row | SMILES | IC50 [µM]
1 | O=C(c1cc(C(F)(F)F)ccn1)[C@]12Cc3cnn(-c4ccc(F)cc4)c3C=C1CC[C@H](S(=O)(=O)C1CCOCC1)C2 [Example 59, ((4aS,6S)-1-(4-fluorophenyl)-6-((tetrahydro-2H-pyran-4-yl)sulfonyl)-1,4,5,6,7,8-hexahydro-4aH-benzo[f]indazol-4a-yl)(4-(trifluoromethyl)pyridin-2-yl)methanone] | ≤ 0.1
2 | CC1(O)CCC(S(=O)(=O)[C@H]2CCC3=Cc4c(cnn4-c4ccc(F)cc4)C[C@]3(C(=O)c3ccccn3)C2)CC1 (stereo partly drawn) [Example 60, ((4aS,6S)-1-(4-fluorophenyl)-6-((4-hydroxy-4-methylcyclohexyl)sulfonyl)-1,4,5,6,7,8-hexahydro-4aH-benzo[f]indazol-4a-yl)(pyridin-2-yl)methanone] | ≤ 0.1
3 | O=C(c1ccc(C2CC2)cn1)[C@]12Cc3cnn(-c4ccc(F)cc4)c3C=C1CC[C@H](S(=O)(=O)C1CCOCC1)C2 [Example 62, (5-cyclopropylpyridin-2-yl)((4aS,6S)-1-(4-fluorophenyl)-6-((tetrahydro-2H-pyran-4-yl)sulfonyl)-1,4,5,6,7,8-hexahydro-4aH-benzo[f]indazol-4a-yl)methanone] | ≤ 0.1
4 | CC(C)S(=O)(=O)[C@H]1CCC2=Cc3c(cnn3-c3ccc(F)cc3)C[C@]2(C(=O)c2ccccn2)C1 [Example 63, ((4aS,6S)-1-(4-fluorophenyl)-6-(isopropylsulfonyl)-1,4,5,6,7,8-hexahydro-4aH-benzo[f]indazol-4a-yl)(pyridin-2-yl)methanone] | ≤ 0.1
5 | O=C(c1cc(C(F)(F)F)ccn1)[C@]12Cc3cnn(-c4ccc(F)cc4)c3C=C1CC[C@H](S(=O)(=O)c1ccc(F)cc1)C2 [Example 64, ((4aS,6S)-1-(4-fluorophenyl)-6-((4-fluorophenyl)sulfonyl)-1,4,5,6,7,8-hexahydro-4aH-benzo[f]indazol-4a-yl)(4-(trifluoromethyl)pyridin-2-yl)methanone] | ≤ 0.1
6 | O=C(c1ccccn1)[C@]12Cc3cnn(-c4ccc(F)cc4)c3C=C1CC[C@H](S(=O)(=O)C1CCC(F)(F)CC1)C2 [Example 65, ((4aS,6S)-6-((4,4-difluorocyclohexyl)sulfonyl)-1-(4-fluorophenyl)-1,4,5,6,7,8-hexahydro-4aH-benzo[f]indazol-4a-yl)(pyridin-2-yl)methanone] | ≤ 0.1
7 | O=C(c1ccc(F)cn1)[C@]12Cc3cnn(-c4ccc(F)cc4)c3C=C1CC[C@H](S(=O)(=O)c1ccccn1)C2 [Example 68, ((4aS,6S)-1-(4-fluorophenyl)-6-(pyridin-2-ylsulfonyl)-1,4,5,6,7,8-hexahydro-4aH-benzo[f]indazol-4a-yl)(5-fluoropyridin-2-yl)methanone] | ≤ 0.1
8 | O=C(c1cc(C(F)(F)F)ccn1)[C@]12Cc3cnn(-c4ccc(F)cc4)c3C=C1CC[C@H](S(=O)(=O)c1cnn(C3CC3)c1)C2 [Example 71, ((4aS,6S)-6-((1-cyclopropyl-1H-pyrazol-4-yl)sulfonyl)-1-(4-fluorophenyl)-1,4,5,6,7,8-hexahydro-4aH-benzo[f]indazol-4a-yl)(4-(trifluoromethyl)pyridin-2-yl)methanone] | ≤ 0.1
9 | Cn1cc(S(=O)(=O)[C@H]2CCC3=Cc4c(cnn4-c4ccc(F)cc4)C[C@]3(C(=O)c3ccc(C4CC4)cn3)C2)cn1 [Example 72, (5-cyclopropylpyridin-2-yl)((4aS,6S)-1-(4-fluorophenyl)-6-((1-methyl-1H-pyrazol-4-yl)sulfonyl)-1,4,5,6,7,8-hexahydro-4aH-benzo[f]indazol-4a-yl)methanone] | ≤ 0.1
10 | O=C(c1cc(C(F)(F)F)ccn1)[C@]12Cc3cnn(-c4ccc(F)cc4)c3C=C1CC[C@H](S(=O)(=O)c1cnn(C3CC3)n1)C2 [Example 73, ((4aS,6S)-6-((2-cyclopropyl-2H-1,2,3-triazol-4-yl)sulfonyl)-1-(4-fluorophenyl)-1,4,5,6,7,8-hexahydro-4aH-benzo[f]indazol-4a-yl)(4-(trifluoromethyl)pyridin-2-yl)methanone] | ≤ 0.1
11 | O=C(c1cc(C(F)(F)F)ccn1)[C@]12Cc3cnn(-c4ccc(F)cc4)c3C=C1CC[C@H](S(=O)(=O)c1cnn(CC(F)(F)F)c1)C2 [Example 75, ((4aS,6S)-1-(4-fluorophenyl)-6-((1-(2,2,2-trifluoroethyl)-1H-pyrazol-4-yl)sulfonyl)-1,4,5,6,7,8-hexahydro-4aH-benzo[f]indazol-4a-yl)(4-(trifluoromethyl)pyridin-2-yl)methanone] | ≤ 0.1
12 | CN([C@H]1CCC2=Cc3c(cnn3-c3ccc(F)cc3)C[C@]2(C(=O)c2ccccn2)C1)S(=O)(=O)c1ccccc1 [Example 80, N-((4aS,6S)-1-(4-fluorophenyl)-4a-picolinoyl-4,4a,5,6,7,8-hexahydro-1H-benzo[f]indazol-6-yl)-N-methylbenzenesulfonamide] | ≤ 0.1
13 | CN([C@H]1CCC2=Cc3c(cnn3-c3ccc(F)cc3)C[C@]2(C(=O)c2ccccn2)C1)S(=O)(=O)c1cccc(Cl)c1 [Example 82, 3-chloro-N-((4aS,6S)-1-(4-fluorophenyl)-4a-picolinoyl-4,4a,5,6,7,8-hexahydro-1H-benzo[f]indazol-6-yl)-N-methylbenzenesulfonamide] | ≤ 0.1

Other lines, results leading:

Row | IC50 [µM] | SMILES
14 | ≤ 0.1 | COc1ccc(C(=O)[C@]23Cc4cnn(-c5ccc(F)cc5)c4C=C2CC[C@H](S(=O)(=O)c2ccccn2)C3)nc1 [Example 61, ((4aS,6S)-1-(4-fluorophenyl)-6-(pyridin-2-ylsulfonyl)-1,4,5,6,7,8-hexahydro-4aH-benzo[f]indazol-4a-yl)(5-methoxypyridin-2-yl)methanone]
15 | ≤ 0.1 | Cn1cc(S(=O)(=O)[C@H]2CCC3=Cc4c(cnn4-c4ccc(F)cc4)C[C@]3(C(=O)c3ccc(OC(F)(F)F)cn3)C2)cn1 [Example 66, ((4aS,6S)-1-(4-fluorophenyl)-6-((1-methyl-1H-pyrazol-4-yl)sulfonyl)-1,4,5,6,7,8-hexahydro-4aH-benzo[f]indazol-4a-yl)(5-(trifluoromethoxy)pyridin-2-yl)methanone]
16 | ≤ 0.1 | O=C(c1ccccn1)[C@]12Cc3cnn(-c4ccc(F)cc4)c3C=C1CC[C@H](S(=O)(=O)C1CCC1)C2 [Example 67, ((4aS,6S)-6-(cyclobutylsulfonyl)-1-(4-fluorophenyl)-1,4,5,6,7,8-hexahydro-4aH-benzo[f]indazol-4a-yl)(pyridin-2-yl)methanone]
17 | ≤ 0.1 | O=C(c1ccc(C(F)(F)F)cn1)[C@]12Cc3cnn(-c4ccc(F)cc4)c3C=C1CC[C@H](S(=O)(=O)C1CCOCC1)C2 [Example 70, ((4aS,6S)-1-(4-fluorophenyl)-6-((tetrahydro-2H-pyran-4-yl)sulfonyl)-1,4,5,6,7,8-hexahydro-4aH-benzo[f]indazol-4a-yl)(5-(trifluoromethyl)pyridin-2-yl)methanone]
18 | ≤ 0.1 | O=C(c1ccc(Cl)cn1)[C@]12Cc3cnn(-c4ccc(F)cc4)c3C=C1CC[C@H](S(=O)(=O)c1ccccn1)C2 [Example 74, (5-chloropyridin-2-yl)((4aS,6S)-1-(4-fluorophenyl)-6-(pyridin-2-ylsulfonyl)-1,4,5,6,7,8-hexahydro-4aH-benzo[f]indazol-4a-yl)methanone]
19 | ≤ 0.1 | CCn1cc(S(=O)(=O)[C@H]2CCC3=Cc4c(cnn4-c4ccc(F)cc4)C[C@]3(C(=O)c3cc(C(F)(F)F)ccn3)C2)cn1 [Example 76, ((4aS,6S)-6-((1-ethyl-1H-pyrazol-4-yl)sulfonyl)-1-(4-fluorophenyl)-1,4,5,6,7,8-hexahydro-4aH-benzo[f]indazol-4a-yl)(4-(trifluoromethyl)pyridin-2-yl)methanone]
20 | ≤ 0.1 | CCn1ncc(S(=O)(=O)[C@H]2CCC3=Cc4c(cnn4-c4ccc(F)cc4)C[C@]3(C(=O)c3ccc(C(F)(F)F)cn3)C2)n1 [Example 77, ((4aS,6S)-6-((2-ethyl-2H-1,2,3-triazol-4-yl)sulfonyl)-1-(4-fluorophenyl)-1,4,5,6,7,8-hexahydro-4aH-benzo[f]indazol-4a-yl)(5-(trifluoromethyl)pyridin-2-yl)methanone]
21 | ≤ 0.1 | CN([C@H]1CCC2=Cc3c(cnn3-c3ccc(F)cc3)C[C@]2(C(=O)c2ccc(C3CC3)cn2)C1)S(=O)(=O)c1cnn(C)n1 [Example 78, N-((4aS,6S)-4a-(5-cyclopropylpicolinoyl)-1-(4-fluorophenyl)-4,4a,5,6,7,8-hexahydro-1H-benzo[f]indazol-6-yl)-N,2-dimethyl-2H-1,2,3-triazole-4-sulfonamide]
22 | ≤ 0.1 | O=C(c1cc(C(F)(F)F)ccn1)[C@]12Cc3cnn(-c4ccc(F)cc4)c3C=C1CC[C@H](S(=O)(=O)c1cnn(CC3CC3)n1)C2 [Example 79, ((4aS,6S)-6-((2-(cyclopropylmethyl)-2H-1,2,3-triazol-4-yl)sulfonyl)-1-(4-fluorophenyl)-1,4,5,6,7,8-hexahydro-4aH-benzo[f]indazol-4a-yl)(4-(trifluoromethyl)pyridin-2-yl)methanone]
